Measured values as given in article PMC4388869 (Journal of neuroimmune pharmacology : the official journal …, 2015).
Several values for one entry are separate records, joined by “and”; a condition that tells them apart may be missing. Identical values can stand only once.

What was measured:
[1] = molecular target: T1, Y470F-hDAT (Homo sapiens, UniProt Q01959, Y470F); assay: Basal substrate efflux assay, CHO cells with Y470F-hDAT; format: cell-based
[2] = molecular target: T2, WT hDAT (Homo sapiens, UniProt Q01959); assay: Basal substrate efflux assay, CHO cells with WT hDAT; format: cell-based; conditions: preloading [3H]MPP+ 5 nM, 30 min
T2 sequence (Q01959 whole entry): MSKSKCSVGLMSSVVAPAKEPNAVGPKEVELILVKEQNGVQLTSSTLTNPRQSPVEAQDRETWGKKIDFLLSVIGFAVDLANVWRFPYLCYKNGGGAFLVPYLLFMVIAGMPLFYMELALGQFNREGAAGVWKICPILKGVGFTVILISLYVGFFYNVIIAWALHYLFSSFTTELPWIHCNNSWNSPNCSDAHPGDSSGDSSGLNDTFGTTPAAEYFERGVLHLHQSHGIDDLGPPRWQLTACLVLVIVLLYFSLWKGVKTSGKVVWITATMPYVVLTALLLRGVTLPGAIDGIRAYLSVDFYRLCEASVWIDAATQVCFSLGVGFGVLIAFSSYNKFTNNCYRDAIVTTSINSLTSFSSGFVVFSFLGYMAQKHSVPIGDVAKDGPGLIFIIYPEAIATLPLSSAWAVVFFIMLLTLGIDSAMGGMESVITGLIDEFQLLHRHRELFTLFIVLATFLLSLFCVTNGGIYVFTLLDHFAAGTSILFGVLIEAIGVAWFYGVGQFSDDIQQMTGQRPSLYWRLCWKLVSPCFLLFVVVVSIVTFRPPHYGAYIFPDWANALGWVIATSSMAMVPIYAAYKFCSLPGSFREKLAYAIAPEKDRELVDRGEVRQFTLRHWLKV

[3] = molecular target: T3, Y470A-hDAT (Homo sapiens, UniProt Q01959, Y470A); assay: Basal substrate efflux assay, CHO cells with Y470A-hDAT; format: cell-based
T3 sequence (Q01959 whole entry Y470A): as the sequence (Q01959 whole entry) above, with Y470A counted along it

[4] = molecular target: T4, Y88F-hDAT (Homo sapiens, UniProt Q01959, Y88F); assay: Basal substrate efflux assay, CHO cells with Y88F-hDAT; format: cell-based
T4 sequence (Q01959 whole entry Y88F): as the sequence (Q01959 whole entry) above, with Y88F counted along it

[5] = molecular target: Y470H-hDAT (Homo sapiens, UniProt Q01959, Y470H); assay: Basal substrate efflux assay, CHO cells with Y470H-hDAT; format: cell-based
Y470H-hDAT, sequence (Q01959 whole entry Y470H): as the sequence (Q01959 whole entry) above, with Y470H counted along it

[6] = molecular target: T5, K92M-hDAT (Homo sapiens, UniProt Q01959, K92M); assay: Basal substrate efflux assay, CHO cells with K92M-hDAT; format: cell-based
T5 sequence (Q01959 whole entry K92M): as the sequence (Q01959 whole entry) above, with K92M counted along it

[7] = molecular target: T5, K92M-hDAT; format: cell-based
[8] = molecular target: T4, Y88F-hDAT; format: cell-based
[9] = molecular target: T3, Y470A-hDAT; format: cell-based
[10] = molecular target: T1, Y470F-hDAT; format: cell-based
[11] = molecular target: T5, K92M-hDAT; assay: [3H]WIN 35,428 binding assay, K92M-hDAT; conditions: ZnCl2 10 µM, CHO cells
[12] = molecular target: T4, Y88F-hDAT; assay: [3H]WIN 35,428 binding assay, Y88F-hDAT; conditions: ZnCl2 10 µM, CHO cells
[13] = molecular target: T2, WT hDAT; format: cell-based; conditions: ZnCl2 10 µM, CHO cells
[14] = molecular target: T1, Y470F-hDAT; assay: [3H]WIN 35,428 binding assay, Y470F-hDAT; conditions: ZnCl2 10 µM, CHO cells
[15] = molecular target: T3, Y470A-hDAT; assay: [3H]WIN 35,428 binding assay, Y470A-hDAT; conditions: ZnCl2 10 µM, CHO cells
[16] = molecular target: T2, WT hDAT; assay: [3H]WIN 35,428 binding assay, WT hDAT; conditions: ZnCl2 10 µM, CHO cells
[17] = preloading [3H]MPP+ 5 nM, 30 min, CHO cells
[18] = transfected PC12 cells (Fig. 4 legend: CHO), room temperature, 8 min
[19] = preloading 0.05 µM [3H]DA, 20 min, CHO cells

T1 sequence (Q01959 whole entry Y470F): as the sequence (Q01959 whole entry) above, with Y470F counted along it

C[n+]1ccc(-c2ccccc2)cc1 [MPP^+, 1-methyl-4-phenylpyridinium]
basal MPP+ efflux compared to WT hDAT [1]: no effect | total [3H]MPP+ in the cells at the start of the efflux experiment [1, 17]: 7399 ± 359 dpm | total [3H]MPP+ in the cells at the start of the efflux experiment [2]: 12120 ± 397 dpm and 15516 ± 920 dpm | basal fractional [3H]MPP+ efflux compared to WT hDAT ([3]; at all time points): elevated | total [3H]MPP+ in the cells at the start of the efflux experiment [3, 17]: 460 ± 46 dpm | basal fractional [3H]MPP+ efflux compared to WT hDAT ([4]; at all time points): did not alter | total [3H]MPP+ in the cells at the start of the efflux experiment [4, 17]: 5695 ± 450 dpm | total [3H]MPP+ in the cells at the start of the efflux experiment [5, 17]: 602 ± 28 dpm | basal fractional [3H]MPP+ efflux compared to WT hDAT ([6]; at all time points): did not alter | total [3H]MPP+ in the cells at the start of the efflux experiment [6, 17]: 967 ± 121 dpm

NCCc1ccc(O)c(O)c1 [DA, dopamine]
Vmax of [3H]DA uptake [7, 18]: 4.5 ± 1.7 pmol/min/10^5 cells | basal DA efflux compared to WT hDAT [1]: no effect | total [3H]DA in the cells at the start of the efflux experiment [1, 19]: 20908 ± 4209 dpm | Vmax of [3H]DA uptake [8, 18]: 14.8 ± 3.7 pmol/min/10^5 cells | basal fractional [3H]DA efflux compared to WT hDAT ([3]; at 1 and 10 min): elevated | total [3H]DA in the cells at the start of the efflux experiment [3, 19]: 1158 ± 123 dpm | total [3H]DA in the cells at the start of the efflux experiment [4, 19]: 41805 ± 6887 dpm | basal fractional [3H]DA efflux compared to WT hDAT ([5]; at 1, 10, 20 min): elevated | total [3H]DA in the cells at the start of the efflux experiment [5, 19]: 2488 ± 150 dpm | Vmax of [3H]DA uptake ([9]; transfected PC12 cells): 1.2 ± 0.2 pmol/min/10^5 cells | Km of [3H]DA uptake compared to WT hDAT ([10]; transfected PC12 cells): did not alter | Vmax of [3H]DA uptake compared to WT hDAT ([10]; transfected PC12 cells): did not alter | basal fractional [3H]DA efflux compared to WT hDAT ([6]; at 1 and 10 min): elevated | total [3H]DA in the cells at the start of the efflux experiment [6, 19]: 9655 ± 2160 dpm

[Cl-].[Cl-].[Zn+2] [Zn^2+, ZnCl2]
decrease of [3H]DA uptake by Zn2+ relative to control ([7]; ZnCl2 10 µM, CHO cells): 81% | effect of Zn2+ on [3H]WIN 35,428 binding [11]: did not significantly alter | effect of Zn2+ on [3H]WIN 35,428 binding [12]: did not significantly alter | decrease of [3H]DA uptake by Zn2+ relative to control [13]: 47% and 48% | decrease of [3H]DA uptake by Zn2+ relative to control ([8]; ZnCl2 10 µM, CHO cells): 73% | effect of Zn2+ on [3H]WIN 35,428 binding [14]: but not in Y470F-hDAT and Y470A-hDAT | decrease of [3H]DA uptake by Zn2+ relative to control ([9]; ZnCl2 10 µM, CHO cells): 72% | decrease of [3H]DA uptake by Zn2+ relative to control ([10]; ZnCl2 10 µM, CHO cells): 49% | effect of Zn2+ on [3H]WIN 35,428 binding [15]: but not in Y470F-hDAT and Y470A-hDAT | increase of [3H]WIN 35,428 binding by Zn2+ relative to control [16]: 48% and 54%
